# Experimental data from PubChem BioAssay AID1963856 (Molecular Pharmacology Branch, DTP, NCI, 2024).
# pIC50: −log10 of the molar value.
# Tested on: LG0567-F671-PDC KRAS tumor spheroid viability
# Assay: Anticancer human tumor LG0567-F671-PDC patient-derived lung adenocarcinoma cell line growth inhibition [KRAS2]
# Conditions: spheroids with HUVEC and MSC; for viability, T/C: stronger effect = lower value
# Procedure, shortened: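 Combination screen of spheroid viability in tumor-cell co-cultures with endothelial (HUVEC) and mesenchymal stem cell stroma. Each agent was tested in half-log dilutions, topping at clinical Cmax or at 10 microM without a known Cmax.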
# [1] = curve of first compound, second compound 0.1 µM
# [2] = curve of first compound, second compound 0.316 µM
# [3] = curve of first compound, second compound 1 µM
# [4] = curve of first compound, second compound 3.16 µM
# [5] = curve of first compound, second compound 10 µM
# [6] = second compound 0.1 µM, first compound 0.0316 µM
# [7] = second compound 0.1 µM, first compound 0.1 µM
# [8] = second compound 0.1 µM, first compound 0.316 µM
# [9] = second compound 0.1 µM, first compound 1 µM
# [10] = second compound 0.1 µM, first compound 3.16 µM
# [11] = second compound 0.1 µM, first compound 10 µM
# [12] = second compound 0.316 µM, first compound 0.0316 µM
# [13] = second compound 0.316 µM, first compound 0.1 µM
# [14] = second compound 0.316 µM, first compound 0.316 µM
# [15] = second compound 0.316 µM, first compound 1 µM
# [16] = second compound 0.316 µM, first compound 3.16 µM
# [17] = second compound 0.316 µM, first compound 10 µM
# [18] = second compound 1 µM, first compound 0.0316 µM
# [19] = second compound 1 µM, first compound 0.1 µM
# [20] = second compound 1 µM, first compound 0.316 µM
# [21] = second compound 1 µM, first compound 1 µM
# [22] = second compound 1 µM, first compound 3.16 µM
# [23] = second compound 1 µM, first compound 10 µM
# [24] = second compound 3.16 µM, first compound 0.0316 µM
# [25] = second compound 3.16 µM, first compound 0.1 µM
# [26] = second compound 3.16 µM, first compound 0.316 µM
# [27] = second compound 3.16 µM, first compound 1 µM
# [28] = second compound 3.16 µM, first compound 3.16 µM
# [29] = second compound 3.16 µM, first compound 10 µM
# [30] = second compound 10 µM, first compound 0.0316 µM
# [31] = second compound 10 µM, first compound 0.1 µM
# [32] = second compound 10 µM, first compound 0.316 µM
# [33] = second compound 10 µM, first compound 1 µM
# [34] = second compound 10 µM, first compound 3.16 µM
# [35] = second compound 10 µM, first compound 10 µM
# [36] = second compound 0.1 µM, first compound 0.000316 µM
# [37] = second compound 0.1 µM, first compound 0.001 µM
# [38] = second compound 0.1 µM, first compound 0.00316 µM
# [39] = second compound 0.1 µM, first compound 0.01 µM
# [40] = second compound 0.316 µM, first compound 0.000316 µM
# [41] = second compound 0.316 µM, first compound 0.001 µM
# [42] = second compound 0.316 µM, first compound 0.00316 µM
# [43] = second compound 0.316 µM, first compound 0.01 µM
# [44] = second compound 1 µM, first compound 0.000316 µM
# [45] = second compound 1 µM, first compound 0.001 µM
# [46] = second compound 1 µM, first compound 0.00316 µM
# [47] = second compound 1 µM, first compound 0.01 µM
# [48] = second compound 3.16 µM, first compound 0.000316 µM
# [49] = second compound 3.16 µM, first compound 0.001 µM
# [50] = second compound 3.16 µM, first compound 0.00316 µM
# [51] = second compound 3.16 µM, first compound 0.01 µM
# [52] = second compound 10 µM, first compound 0.000316 µM
# [53] = second compound 10 µM, first compound 0.001 µM
# [54] = second compound 10 µM, first compound 0.00316 µM
# [55] = second compound 10 µM, first compound 0.01 µM
# 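Note: drug exposure lasted seven days after spheroids formed for three days.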
# 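Throughout, for viability, T/C: 100% = DMSO vehicle control viability.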
smiles,measurement,setting,value
COc1cc2nccc(Oc3ccc(NC(=O)C4(C(=O)Nc5ccc(F)cc5)CC4)cc3)c2cc1OC + CNCc1ccccc1-c1csc(C(C)Nc2nc(C)nc3cc(OC)c(OC)cc23)c1,pIC50,[1],< 5.00
same,pIC50,[2],6.27
same,pIC50,[3],6.71
same,pIC50,[4],> 7.50
same,pIC50,[5],> 7.50
same,"viability, T/C",[6],78.2%
same,"viability, T/C",[7],66.5%
same,"viability, T/C",[8],56.8%
same,"viability, T/C",[9],49.6%
same,"viability, T/C",[10],33.1%
same,"viability, T/C",[11],88.5%
same,"viability, T/C",[12],65.8%
same,"viability, T/C",[13],58.8%
same,"viability, T/C",[14],51.8%
same,"viability, T/C",[15],39.6%
same,"viability, T/C",[16],27.2%
same,"viability, T/C",[17],75.7%
same,"viability, T/C",[18],55%
same,"viability, T/C",[19],58.2%
same,"viability, T/C",[20],45.4%
same,"viability, T/C",[21],27.8%
same,"viability, T/C",[22],23.1%
same,"viability, T/C",[23],38%
same,"viability, T/C",[24],0.31%
same,"viability, T/C",[25],0.25%
same,"viability, T/C",[26],0.87%
same,"viability, T/C",[27],0.11%
same,"viability, T/C",[28],0.21%
same,"viability, T/C",[29],0.7%
same,"viability, T/C",[30],0.63%
same,"viability, T/C",[31],0.38%
same,"viability, T/C",[32],0.97%
same,"viability, T/C",[33],0.33%
same,"viability, T/C",[34],2.44%
same,"viability, T/C",[35],0.91%
CN(C)C/C=C/C(=O)Nc1cc2c(Nc3ccc(F)c(Cl)c3)ncnc2cc1O[C@H]1CCOC1 + C=CC(=O)N1CCN(c2nc(=O)n(-c3c(C)ccnc3C(C)C)c3nc(-c4c(O)cccc4F)c(F)cc23)C(C)C1,pIC50,[1],> 9.50
same,pIC50,[2],> 9.50
same,pIC50,[3],> 9.50
same,pIC50,[4],> 9.50
same,pIC50,[5],> 9.50
same,"viability, T/C",[36],32.6%
same,"viability, T/C",[37],26.2%
same,"viability, T/C",[38],23.1%
same,"viability, T/C",[39],18.4%
same,"viability, T/C",[6],15.4%
same,"viability, T/C",[7],26.1%
same,"viability, T/C",[40],28.6%
same,"viability, T/C",[41],28.2%
same,"viability, T/C",[42],26.1%
same,"viability, T/C",[43],21.6%
same,"viability, T/C",[12],24.1%
same,"viability, T/C",[13],28.4%
same,"viability, T/C",[44],25.1%
same,"viability, T/C",[45],24.7%
same,"viability, T/C",[46],24.5%
same,"viability, T/C",[47],26.2%
same,"viability, T/C",[18],27.5%
same,"viability, T/C",[19],24.4%
same,"viability, T/C",[48],18.6%
same,"viability, T/C",[49],22.9%
same,"viability, T/C",[50],26.1%
same,"viability, T/C",[51],14.5%
same,"viability, T/C",[24],21.8%
same,"viability, T/C",[25],22.5%
same,"viability, T/C",[52],23%
same,"viability, T/C",[53],22.9%
same,"viability, T/C",[54],15.8%
same,"viability, T/C",[55],13.1%
same,"viability, T/C",[30],18.5%
same,"viability, T/C",[31],13.3%
Cn1ncnc1[C@H]1c2n[nH]c(=O)c3cc(F)cc(c23)N[C@@H]1c1ccc(F)cc1,"viability, T/C",compound 0.000316 µM,99.5% [middle of 5 runs]
same,"viability, T/C",compound 0.001 µM,106% [middle of 5 runs]
same,"viability, T/C",compound 0.00316 µM,101% [middle of 5 runs]
same,"viability, T/C",compound 0.01 µM,102% [middle of 5 runs]
same,"viability, T/C",compound 0.0316 µM,104% [middle of 5 runs]
same,"viability, T/C",compound 0.1 µM,90.9% [middle of 5 runs]
same,pIC50,curve of compound,< 7.00
CC1COCCN1c1cc(-c2ccnn2C)c2ccnc(-c3ccn[nH]3)c2n1 (centres undefined),"viability, T/C",compound 0.01 µM,101% [middle of 5 runs]
same,"viability, T/C",compound 0.316 µM,74% [middle of 5 runs]
O=C(c1cc(Cc2n[nH]c(=O)c3ccccc23)ccc1F)N1CCN(C(=O)C2CC2)CC1 + C=CC(=O)N1CCN(c2nc(=O)n(-c3c(C)ccnc3C(C)C)c3nc(-c4c(O)cccc4F)c(F)cc23)C(C)C1,pIC50,[1],> 7.50
same,pIC50,[2],> 7.50
same,pIC50,[3],> 7.50
same,pIC50,[4],> 7.50
same,pIC50,[5],> 7.50
same,"viability, T/C",[6],24.8%
same,"viability, T/C",[7],21.5%
same,"viability, T/C",[8],23.1%
same,"viability, T/C",[9],26.7%
same,"viability, T/C",[10],29.2%
same,"viability, T/C",[11],33.6%
same,"viability, T/C",[12],23.1%
same,"viability, T/C",[13],22.8%
same,"viability, T/C",[14],25.1%
same,"viability, T/C",[15],21.5%
same,"viability, T/C",[16],26.9%
same,"viability, T/C",[17],30.4%
same,"viability, T/C",[18],25.8%
same,"viability, T/C",[19],25.6%
same,"viability, T/C",[20],25.2%
same,"viability, T/C",[21],23.6%
same,"viability, T/C",[22],25.4%
same,"viability, T/C",[23],30.4%
same,"viability, T/C",[24],25.1%
same,"viability, T/C",[25],27.8%
same,"viability, T/C",[26],25.7%
same,"viability, T/C",[27],23.8%
same,"viability, T/C",[28],23.9%
same,"viability, T/C",[29],31.8%
same,"viability, T/C",[30],32.1%
same,"viability, T/C",[31],32.1%
same,"viability, T/C",[32],31.9%
same,"viability, T/C",[33],30%
same,"viability, T/C",[34],30.4%
same,"viability, T/C",[35],28.3%
CN(C)C/C=C/C(=O)Nc1cc2c(Nc3ccc(F)c(Cl)c3)ncnc2cc1O[C@H]1CCOC1 + COc1cc2nc(C)nc(NC(C)c3cc(N)cc(C(F)(F)F)c3)c2cc1OC1CCOC1,pIC50,[1],7.52
same,pIC50,[2],8.37
same,pIC50,[3],7.95
same,pIC50,[4],> 9.50
same,pIC50,[5],> 9.50
same,"viability, T/C",[36],88.5%
same,"viability, T/C",[37],68.1%
same,"viability, T/C",[38],56.5%
same,"viability, T/C",[39],51.2%
same,"viability, T/C",[6],51.6%
same,"viability, T/C",[7],48.2%
same,"viability, T/C",[40],69.5%
same,"viability, T/C",[41],60.9%
same,"viability, T/C",[42],54.4%
same,"viability, T/C",[43],40.8%
same,"viability, T/C",[12],45.1%
same,"viability, T/C",[13],46.2%
same,"viability, T/C",[44],85.9%
same,"viability, T/C",[45],66.4%
same,"viability, T/C",[46],57.5%
same,"viability, T/C",[47],53.9%
same,"viability, T/C",[18],39.8%
same,"viability, T/C",[19],49.3%
same,"viability, T/C",[48],45.9%
same,"viability, T/C",[49],43.8%
same,"viability, T/C",[50],36.4%
same,"viability, T/C",[51],32.1%
same,"viability, T/C",[24],29.8%
same,"viability, T/C",[25],32.1%
same,"viability, T/C",[52],39.6%
same,"viability, T/C",[53],35.5%
same,"viability, T/C",[54],27.8%
same,"viability, T/C",[55],24.4%
same,"viability, T/C",[30],17.8%
same,"viability, T/C",[31],22.4%
